Literature values as cited in US20130317108A1, “DERMATOLOGICAL FOAMS OBTAINED FROM A GEL OR SUSPENSION CONTAINING A COMBINATION OF ADAPALENE AND BENZOYL PEROXIDE” (GALDERMA RESEARCH & DEVELOPMENT, priority 2010, published 2013).
Where two headings read alike, the source gives them in different places.

Columns and labels:
[1] = in presence of benzoyl peroxide formulation
[2] = 40° C.
[3] = in suspension (dispersed form) in water and propylene glycol, 90 days of storage

Row | SMILES | retinoid degraded ([1]; within 24 hours) | retinoid degraded ([1]; within 2 hours) [%] | degradation time (half-life time) ([2]; in PEG 400 (0.5 mg/g)) [days] | degradation time (half-life time) ([2]; in ethanol) [days] | degradation time (half-life time) ([2]; in propylene glycol) [days] | degradation on storage [3]
1 | COc1ccc(-c2ccc3cc(C(=O)O)ccc3c2)cc1C12CC3CC(CC(C3)C1)C2 [adapalene, 6-[3-(1-Adamantyl)-4-methoxyphenyl]-2-naphthoic acid] | no degradation | – | – | – | – | –
2 | CC1=C(/C=C/C(C)=C/C=C/C(C)=C/C(=O)O)C(C)(C)CCC1 [tretinoin] | 95% | 50 | – | – | – | –
3 | O=C(OOC(=O)c1ccccc1)c1ccccc1 [benzoyl peroxide] | – | – | 1.4 | 29 | 53 | not degraded
